Source: patent US8952024B2, “Herbicidal pyrimidone derivatives” (E I du Pont de Nemours and Company, priority 2009, dated 2015)

Columns and labels:
Experiment in all cases: Test B pre-/postemergence plant response
Type in all cases: in vivo
[1] = system: Italian ryegrass (Lolium multiflorum)
Summary of the method: (§1)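 Visually scored on a 0 to 100 scale after 13 to 15 days in greenhouse versus controls. Treatments were preemergence on seeded loam/sand soil and postemergence on 1- to 4-leaf plants.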

[2] = system: cocklebur (Xanthium strumarium)
Summary of the method: as §1

[3] = system: large crabgrass (Digitaria sanguinalis)
Summary of the method: as §1

[4] = system: ragweed (common ragweed, Ambrosia elatior)
Summary of the method: as §1

[5] = system: woolly cupgrass (Eriochloa villosa)
Summary of the method: as §1

[6] = system: Surinam grass (Brachiaria decumbens)
Summary of the method: as §1

[7] = system: downy bromegrass (Bromus tectorum)
Summary of the method: as §1

[8] = system: wheat (Triticum aestivum)
Summary of the method: as §1

[9] = system: morningglory (Ipomoea coccinea)
Summary of the method: as §1

[10] = system: blackgrass (Alopecurus myosuroides)
Summary of the method: as §1

[11] = system: kochia (Kochia scoparia)
Summary of the method: as §1

[12] = system: bermudagrass (Cynodon dactylon)
Summary of the method: as §1

[13] = system: wild oat (Avena fatua)
Summary of the method: as §1

[14] = 31 g ai/ha, postemergence, scale 0 to 100, 0 is no effect, 100 is complete control
[15] = Postemergence, 62 g ai/ha, scale 0 (no effect) to 100 (complete control), 13 to 15 days
[16] = Postemergence, 125 g ai/ha, visual rating after 13 to 15 days, scale 0 (no effect) to 100 (complete control)
[17] = Postemergence, 250 g ai/ha, scale 0 to 100 (0 no effect, 100 complete control)
[18] = Preemergence, 31 g ai/ha, scale 0 to 100 (0 no effect, 100 complete control)
[19] = Preemergence, 62 g ai/ha, scale 0 to 100 (0 no effect, 100 complete control)
[20] = Preemergence, 125 g ai/ha, scale 0 to 100, 0 no effect, 100 complete control
[21] = 250 g ai/ha, Preemergence, 0 to 100 scale

Cc1cc(-n2c(-c3ccccc3)ncc(C(=O)C3=C(O)CCCC3=O)c2=O)ccc1F [Compound 53]
Plant response rating, Ryegrass, Italian [1, 14]: 0
Plant response rating, Ryegrass, Italian [1, 15]: 5
Plant response rating, Ryegrass, Italian [1, 16]: 40
Plant response rating, Ryegrass, Italian [1, 17]: 45
Plant response rating, Ryegrass, Italian [1, 18]: 0
Plant response rating, Ryegrass, Italian [1, 19]: 0
Plant response rating, Ryegrass, Italian [1, 20]: 0
Plant response rating, Cocklebur [2, 14]: 80
Plant response rating, Cocklebur [2, 21]: 70
Plant response rating, Cocklebur [2, 15]: 85
Plant response rating, Cocklebur [2, 16]: 85
Plant response rating, Cocklebur [2, 17]: 90
Plant response rating, Cocklebur [2, 18]: 10
Plant response rating, Cocklebur [2, 19]: 20
Plant response rating, Cocklebur [2, 20]: 65
Plant response rating, Crabgrass, Large [3, 14]: 85
Plant response rating, Crabgrass, Large [3, 21]: 100
Plant response rating, Crabgrass, Large [3, 15]: 95
Plant response rating, Crabgrass, Large [3, 16]: 95
Plant response rating, Crabgrass, Large [3, 17]: 100
Plant response rating, Crabgrass, Large [3, 18]: 75
Plant response rating, Crabgrass, Large [3, 19]: 100
Plant response rating, Crabgrass, Large [3, 20]: 100
Plant response rating, Ragweed [4, 14]: 80
Plant response rating, Ragweed [4, 15]: 85
Plant response rating, Ragweed [4, 16]: 95
Plant response rating, Ragweed [4, 17]: 98
Plant response rating, Ragweed [4, 18]: 65
Plant response rating, Ragweed [4, 19]: 75
Plant response rating, Ragweed [4, 20]: 85
Plant response rating, Cupgrass, Woolly [5, 14]: 65
Plant response rating, Cupgrass, Woolly [5, 21]: 95
Plant response rating, Cupgrass, Woolly [5, 15]: 90
Plant response rating, Cupgrass, Woolly [5, 16]: 95
Plant response rating, Cupgrass, Woolly [5, 17]: 98
Plant response rating, Cupgrass, Woolly [5, 18]: 0
Plant response rating, Cupgrass, Woolly [5, 19]: 55
Plant response rating, Cupgrass, Woolly [5, 20]: 85
Plant response rating, Surinam Grass [6, 14]: 85
Plant response rating, Surinam Grass [6, 15]: 95
Plant response rating, Surinam Grass [6, 16]: 98
Plant response rating, Surinam Grass [6, 17]: 98
Plant response rating, Surinam Grass [6, 18]: 75
Plant response rating, Surinam Grass [6, 19]: 85
Plant response rating, Surinam Grass [6, 20]: 100
Plant response rating, Bromegrass, Downy [7, 14]: 35
Plant response rating, Bromegrass, Downy [7, 21]: 30
Plant response rating, Bromegrass, Downy [7, 15]: 50
Plant response rating, Bromegrass, Downy [7, 16]: 55
Plant response rating, Bromegrass, Downy [7, 17]: 60
Plant response rating, Bromegrass, Downy [7, 18]: 0
Plant response rating, Bromegrass, Downy [7, 19]: 0
Plant response rating, Bromegrass, Downy [7, 20]: 5
Plant response rating, Wheat [8, 14]: 20
Plant response rating, Wheat [8, 15]: 25
Plant response rating, Wheat [8, 16]: 30
Plant response rating, Wheat [8, 17]: 50
Plant response rating, Wheat [8, 18]: 0
Plant response rating, Wheat [8, 19]: 0
Plant response rating, Wheat [8, 20]: 0
Plant response rating, Morningglory [9, 14]: 55
Plant response rating, Morningglory [9, 15]: 75
Plant response rating, Morningglory [9, 16]: 80
Plant response rating, Morningglory [9, 17]: 98
Plant response rating, Morningglory [9, 18]: 0
Plant response rating, Morningglory [9, 19]: 20
Plant response rating, Morningglory [9, 20]: 25
Plant response rating, Blackgrass [10, 14]: 20
Plant response rating, Blackgrass [10, 21]: 60
Plant response rating, Blackgrass [10, 15]: 30
Plant response rating, Blackgrass [10, 16]: 40
Plant response rating, Blackgrass [10, 17]: 50
Plant response rating, Blackgrass [10, 18]: 0
Plant response rating, Blackgrass [10, 19]: 5
Plant response rating, Blackgrass [10, 20]: 5
Plant response rating, Kochia [11, 14]: 45
Plant response rating, Kochia [11, 15]: 65
Plant response rating, Kochia [11, 16]: 75
Plant response rating, Kochia [11, 17]: 80
Plant response rating, Bermudagrass [12, 14]: 90
Plant response rating, Bermudagrass [12, 21]: 100
Plant response rating, Bermudagrass [12, 15]: 95
Plant response rating, Bermudagrass [12, 16]: 98
Plant response rating, Bermudagrass [12, 17]: 98
Plant response rating, Bermudagrass [12, 19]: 100
Plant response rating, Bermudagrass [12, 20]: 100
Plant response rating, Oat, Wild [13, 14]: 50
Plant response rating, Oat, Wild [13, 15]: 70
Plant response rating, Oat, Wild [13, 16]: 85
Plant response rating, Oat, Wild [13, 17]: 85
Plant response rating, Oat, Wild [13, 18]: 0
Plant response rating, Oat, Wild [13, 19]: 0
Plant response rating, Oat, Wild [13, 20]: 0
